Source: US20250375427A1 (Biohaven Therapeutics Ltd., priority 2022, published 2025)

Key:
64SP stem like cells = details: combined with radiation; cited from earlier work
[1] = test system: O^6-methylguanine-DNA-methyltransferase (MGMT) expression; details: combined with temozolomide (TMZ); cited from earlier work
[2] = Clinical adverse events observed with troriluzole; details: human, in vivo
From the text: In general, mild liver enzymes elevations attributed to troriluzole occur due to enzyme induction and are likely to resolve spontaneously within 12 weeks without any changes in the dose of troriluzole. However, the investigator should evaluate the subject, as appropriate.

glioma = details: cited from earlier work

Structure (SMILES) | sensitivity to radiation (64SP stem like cells) | effects of TMZ [1] | most commonly observed adverse events [2] | concentration of CD4+ T cells in TME (glioma; IF data, after troriluzole treatment) | proliferation of tumor-infiltrating T cells (glioma; troriluzole treatment) | survival (glioma; troriluzole treatment) | survival and T regulatory cells in combination with anti-PD-1 (glioma; with anti-PD-1 immunotherapy, glioma tumor microenvironment (TME))
Nc1nc2ccc(OC(F)(F)F)cc2s1 [Riluzole, riluzole] | enhances sensitivity to radiation | enhances the effects of TMZ via suppression of O^6-methylguanine-DNA-methyltransferase (MGMT) expression | – | – | – | – | –
CN(CC(=O)Nc1nc2ccc(OC(F)(F)F)cc2s1)C(=O)CNC(=O)CN [Troriluzole, troriluzole] | – | – | Mild increases in liver enzymes | increased concentration of CD4+ T cells in TME | promoted proliferation of tumor-infiltrating T cells | induced a survival benefit | synergized with anti-PD-1 immunotherapy to further improve survival and reduce T regulatory cells
